According to US20020052353A1, “Methods of prevention and treatment of ischemic damage” (priority 1999, published 2002):

Experiments:
[1] = tested on: Primary rat brain capillary endothelial cells (BCEC); assay: BCEC mortality under combined anoxia and hypoglycemia, Trypan blue; settings: 2 nM; 100 mg % glucose; anoxia 2 hours
Procedure: Cell media contained 200 mg % or 100 mg % glucose. Culture dishes containing BCEC were placed in either an incubator or a nitrogen filled chamber for two hours. Trypan blue staining was used to distinguish live cells from dead cells. Two cell countings at two different hemacytometer squares were averaged. Mean ±SEM are depicted (n=8.12). *<0.05 vs. corresponding vehicle control.
(§1) Primary rat brain capillary endothelial cells (BCEC) cultures were prepared following the method of Goldstein, J. Neurochemistry vol.
Nitrogen gas was influxed to replace the oxygen inside the chamber. The chamber was sealed and placed in the incubator for four hours for nonhypoglycemic cultures and 2 hours for hypoglycemic cultures.
(§2) Cell mortality was counted using Trypan blue staining method. Cell death percentage was calculated as dead cell/alive cell ×100%.
(§3) Statistical treatment included two-way analysis of variance applied to determine the significance of the difference among the experimental groups. Kruskal-Wallis nonparametric analysis was used for data presented as percentage. […] P<0.05 was considered significant.

[2] = tested on: ischemia induced by middle cerebral artery occlusion (MCAO); assay: Pretreatment with estrogen compounds before middle cerebral artery occlusion (MCAO) in ovariectomized rats: mortality and ischemic area; format: in vivo, rat; settings: for reduction of ischemic area: 5 mm Silastic tube 24 h prior to MCAO
[3] = tested on: Primary rat brain capillary endothelial cells (BCEC); assay: Brain capillary endothelial cell (BCEC) mortality under hypoglycemia, Trypan blue; settings: 2 nM
Procedure: The control consists of the ethanol vehicle only. The glucose concentrations in the cell media were adjusted from 20 mg % to 200 mg % by adding appropriate amount of D-(+)-glucose to the glucose-free media. BCEC were incubated for 24 hours (a) and 48 hours (b). Trypan blue staining was used to distinguish live cells from dead cells. Two cell countings at two different hemacytometer squares were averaged. Mean±SEM are depicted (n=8-12). *p<0.05 vs. corresponding vehicle control.
as §1
Hypoglycemia experiments were undertaken. […] The glucose concentration of the culture media was then adjusted from 20 mg % to 200 mg % by adding appropriate amount of D-(+)-glucose to the glucose-free media and monitored by Glucose and L-Lactate Analyzer (YSI model 2300 STAT plus, YSI, Inc., Yellow Springs, Ohio). The hypoglycemic cultures were maintained for 24 hours or 48 hours prior to staining with Trypan blue.
as §2, §3

[4] = tested on: ischemia induced by middle cerebral artery occlusion (MCAO); assay: Post-treatment at 0.5, 1, 2, 3 and 4 hours after MCAO: ischemic lesion volume by TTC staining; format: in vivo, rat; settings: iv 100 μg/kg HPCD-complexed 17β-estradiol plus Silastic pellet at 0.5, 1, 2 or 3 hours post-occlusion; 48 hours after MCAO

Structure (SMILES)	protection from cumulative effect of hypoglycemia and anoxia [1]	ischemic area, percent of cross-sectional area of brain sections ([2]; pretreatment 24 h prior to MCAO, 3 brain slices, sham 25.6±5.7%) [%]	protective effect in tissue slices (FIG. 2) ([2]; sc injection two hours prior to ischemic event, slices A-D)	cell loss saved compared with control ([3]; media glucose 20 mg %) [%]	cell loss saved compared with control ([3]; media glucose 40 mg %) [%]	cell loss saved compared with control ([3]; media glucose 100 mg %) [%]	protection, ischemic lesion volume (TTC staining) [4]	reduction of ischemic area ([2]; slice C) [%]	reduction of ischemic area ([2]; slice D) [%]	reduction of ischemic area ([2]; slice E) [%]	protective effect in tissue slices (FIG. 3) ([2]; sustained subcutaneous delivery initiated 24 hours prior to ischemic event, slices A-E)
C[C@]12CC[C@@H]3c4ccc(O)cc4CC[C@H]3[C@@H]1CC[C@@H]2O [17β-estradiol]	effective in protecting	9.8±4.0	significant protective effect	23	28.4	35.9	significant protection				
C[C@]12CC[C@@H]3c4ccc(O)cc4CC[C@H]3[C@@H]1CC[C@H]2O [17α-estradiol]								55	66	81	significant protective effect
